Each compound was assayed against α4β7 integrin (Homo sapiens (Human), UniProt P13612+P26010) (assay: α4β7 Integrin Cell Capture Assay). Conditions: RPMI8866 cells captured on MadCAM-1 extracellular domain-coated plate.
Assay type: cell-based

α4β7 integrin, sequence (P13612 34-1032): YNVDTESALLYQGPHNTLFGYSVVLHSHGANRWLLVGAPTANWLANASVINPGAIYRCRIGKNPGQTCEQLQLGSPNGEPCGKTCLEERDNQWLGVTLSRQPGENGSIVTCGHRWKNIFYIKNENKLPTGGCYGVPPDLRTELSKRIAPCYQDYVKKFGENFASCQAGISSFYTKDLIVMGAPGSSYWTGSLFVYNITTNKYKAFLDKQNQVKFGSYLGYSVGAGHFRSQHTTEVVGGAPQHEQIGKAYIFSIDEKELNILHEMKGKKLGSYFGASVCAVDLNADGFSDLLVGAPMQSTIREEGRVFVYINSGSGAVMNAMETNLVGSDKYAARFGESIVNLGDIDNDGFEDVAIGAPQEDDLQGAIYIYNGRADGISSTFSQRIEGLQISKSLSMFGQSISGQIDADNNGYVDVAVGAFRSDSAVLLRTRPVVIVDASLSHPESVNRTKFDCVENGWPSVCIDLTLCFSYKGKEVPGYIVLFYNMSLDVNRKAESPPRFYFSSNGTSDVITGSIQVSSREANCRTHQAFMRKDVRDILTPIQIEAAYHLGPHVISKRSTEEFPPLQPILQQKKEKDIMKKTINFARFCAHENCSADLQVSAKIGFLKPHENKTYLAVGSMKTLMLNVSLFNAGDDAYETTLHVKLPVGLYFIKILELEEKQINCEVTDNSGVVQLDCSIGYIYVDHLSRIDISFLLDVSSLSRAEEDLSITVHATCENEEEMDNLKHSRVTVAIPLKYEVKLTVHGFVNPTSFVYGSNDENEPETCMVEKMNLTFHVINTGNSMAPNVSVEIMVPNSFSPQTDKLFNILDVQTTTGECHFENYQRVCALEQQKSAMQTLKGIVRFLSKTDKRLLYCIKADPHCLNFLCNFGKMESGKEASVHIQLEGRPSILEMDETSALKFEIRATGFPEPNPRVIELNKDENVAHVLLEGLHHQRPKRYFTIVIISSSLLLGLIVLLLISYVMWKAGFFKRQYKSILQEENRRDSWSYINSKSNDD
α4β7 integrin, sequence (P26010 20-798): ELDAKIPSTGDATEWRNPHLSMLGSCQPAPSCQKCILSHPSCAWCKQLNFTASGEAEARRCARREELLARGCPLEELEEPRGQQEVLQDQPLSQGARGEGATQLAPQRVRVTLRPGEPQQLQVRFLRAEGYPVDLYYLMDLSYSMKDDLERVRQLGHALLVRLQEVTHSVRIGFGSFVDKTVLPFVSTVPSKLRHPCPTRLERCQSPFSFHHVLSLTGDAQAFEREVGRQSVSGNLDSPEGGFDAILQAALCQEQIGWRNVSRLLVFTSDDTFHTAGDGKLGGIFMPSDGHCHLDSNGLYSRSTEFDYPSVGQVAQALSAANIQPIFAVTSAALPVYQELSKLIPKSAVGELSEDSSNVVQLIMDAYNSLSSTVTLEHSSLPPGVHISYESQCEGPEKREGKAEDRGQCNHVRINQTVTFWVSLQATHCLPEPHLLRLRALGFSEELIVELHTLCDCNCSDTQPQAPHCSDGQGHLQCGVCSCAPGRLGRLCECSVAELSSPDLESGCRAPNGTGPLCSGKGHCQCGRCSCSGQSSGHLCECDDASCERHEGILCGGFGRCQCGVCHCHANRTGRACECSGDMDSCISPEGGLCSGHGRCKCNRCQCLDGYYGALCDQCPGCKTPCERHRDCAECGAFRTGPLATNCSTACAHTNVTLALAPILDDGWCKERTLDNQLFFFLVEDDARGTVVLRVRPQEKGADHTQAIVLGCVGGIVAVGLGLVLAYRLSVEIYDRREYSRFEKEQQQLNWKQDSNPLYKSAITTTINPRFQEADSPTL

Point of comparison: `Cc1cc(N2CCOC[C@@H]2C(F)(F)F)cc(F)c1C(=O)N[C@@H](Cc1ccc(-n2c(=O)[nH]c3cnccc3c2=O)c2ncccc12)C(=O)O` [Example 421], EC50 0.191 nM. Against it:
- [2H]C([2H])([2H])c1cc(N2CCOC[C@@H]2C(F)(F)F)cc(F)c1C(=O)N[C@@H](Cc1ccc(-c2c(C(F)(F)F)cc(C)n(C)c2=O)c2ncccc12)C(=O)O [Example 462] — 1.9-fold lower, 0.102 nM
- CC[C@@H](Nc1cc(C)c(C(=O)N[C@@H](Cc2ccc(-n3c(=O)c4ccncc4n(C)c3=O)c3ncccc23)C(=O)O)c(F)c1)C(F)(F)F [Example 439] — 3.9-fold lower, 0.049 nM
- Cc1cc(N2CCOC[C@@H]2C(F)(F)F)cc(F)c1C(=O)N[C@@H](Cc1ccc(-c2c(C(F)(F)F)cc(C)n(C)c2=O)c2ncccc12)C(=O)O (atropisomer, axis not shown) [Example 461] — 2.1-fold lower, 0.093 nM
- Cc1cc(N2CCOC[C@@H]2C(F)(F)F)cc(F)c1C(=O)N[C@@H](Cc1ccc(-c2c(C)nc(C)n(C)c2=O)c2ncccc12)C(=O)O [Example 460] — within 1.5-fold, 0.15 nM
- Cn1c(=O)n(-c2ccc(C[C@H](NC(=O)c3c(F)cc(N4CCOC[C@@H]4C(F)(F)F)cc3F)C(=O)O)c3cccnc23)c(=O)c2ccncc21 [Example 474] — 1.7-fold lower, 0.112 nM
- CCc1cc(N2CCOC[C@@H]2C(F)(F)F)cc(F)c1C(=O)N[C@@H](Cc1ccc(-c2c(C(F)(F)F)cc(C)n(C)c2=O)c2ncccc12)C(=O)O [Example 471] — within 1.5-fold, 0.179 nM
- COc1cc2c(=O)n(-c3ccc(C[C@H](NC(=O)c4c(C)cc(N5CCOC[C@@H]5C(F)(F)F)cc4F)C(=O)O)c4cccnc34)c(=O)n(C)c2cn1 [Example 429] — within 1.5-fold, 0.162 nM
- Cc1cc(N2CCOC[C@@H]2C(F)(F)F)cc(F)c1C(=O)N[C@@H](Cc1ccc(-n2c(=O)c3nccnc3n(C)c2=O)c2ncccc12)C(=O)O [Example 404, (S)-2-(2-fluoro-6-methyl-4-((R)-3-(trifluoromethyl)morpholino)benzamido)-3-(8-(1-methyl-2,4-dioxo-1,4-dihydropteridin-3(2H)-yl)quinolin-5-yl)propanoic acid] — 1.9-fold lower, 0.1 nM

Same assay, conditions: Table 1; capture of α4β7 expressing RPM18866 cells on MadCAM-1 extracellular domain-coated plate

Point of comparison: `CC[C@@H](Nc1cc(F)c(C(=O)N[C@@H](Cc2ccc(-c3cc4ccncc4n(C)c3=O)c3ncccc23)C(=O)O)c(F)c1)C(F)(F)F` [Example 110, (S)-2-(2,6-difluoro-4-(((R)-1,1,1-trifluorobutan-2-yl)amino)benzamido)-3-(8-(1-methyl-2-oxo-1,2-dihydro-1,7-naphthyridin-3-yl)quinolin-5-yl)propanoic acid], EC50 0.3 nM. Against it:
- O=C(N[C@@H](Cc1ccc(-c2ncc3ccccc3c2C(F)(F)F)c2ncccc12)C(=O)O)c1c(F)cccc1F [Example 71, (S)-2-(2,6-difluorobenzamido)-3-(8-(4-(trifluoromethyl)isoquinolin-3-yl)quinolin-5-yl)propanoic acid] — 32-fold higher, 9.5 nM
- Cc1ccccc1-c1ccc(C[C@H](NC(=O)c2c(F)cc(NS(=O)(=O)c3ccc(-c4ccnc(F)c4)cc3)cc2F)C(=O)O)c2cccnc12 [Example 63, (S)-2-(2,6-difluoro-4-((4-(2-fluoropyridin-4-yl)phenyl)sulfonamido)benzamido)-3-(8-(o-tolyl)quinolin-5-yl)propanoic acid] — 100-fold higher, 30.5 nM
- C[C@@H](N(C)c1cc(F)c(C(=O)N[C@@H](Cc2ccc(-c3ccc(C#N)cc3Cl)c3ncccc23)C(=O)O)c(F)c1)C(F)(F)F [Example 87, (S)-3-(8-(2-chloro-4-cyanophenyl)quinolin-5-yl)-2-(2,6-difluoro-4-(methyl((R)-1,1,1-trifluoropropan-2-yl)amino)benzamido)propanoic acid] — 50-fold higher, 15 nM
- N#Cc1ccc(-c2ccc(C[C@H](NC(=O)c3c(F)cc(N[C@H](c4ccccc4)C(F)(F)F)cc3F)C(=O)O)c3cccnc23)c(Cl)c1 [Example 86, (S)-3-(8-(2-chloro-4-cyanophenyl)quinolin-5-yl)-2-(2,6-difluoro-4-(((R)-2,2,2-trifluoro-1-phenylethyl)amino)benzamido)propanoic acid] — 28-fold higher, 8.3 nM
- CS(=O)(=O)Nc1cc(F)c(C(=O)N[C@@H](Cc2ccc(-c3ccc(C#N)cc3Cl)c3ncccc23)C(=O)O)c(F)c1 [Example 45, (S)-3-(8-(2-chloro-4-cyanophenyl)quinolin-5-yl)-2-(2,6-difluoro-4-(methylsulfonamido)benzamido)propanoic acid] — 11-fold higher, 3.4 nM
- Cc1noc(C)c1-c1ccc(C[C@H](NC(=O)c2c(F)cc(NS(=O)(=O)c3ccc(-c4ccnc(F)c4)cc3)cc2F)C(=O)O)c2cccnc12 [Example 55, (S)-2-(2,6-difluoro-4-((4-(2-fluoropyridin-4-yl)phenyl)sulfonamido)benzamido)-3-(8-(3,5-dimethylisoxazol-4-yl)quinolin-5-yl)propanoic acid] — 91-fold higher, 27.4 nM
- N#Cc1ccc(-c2ccc(C[C@H](NC(=O)c3c(Cl)cccc3Cl)C(=O)O)c3cc(F)cnc23)c(Cl)c1 [Example 30, (S)-3-(8-(2-chloro-4-cyanophenyl)-3-fluoroquinolin-5-yl)-2-(2,6-dichlorobenzamido)propanoic acid] — 56-fold higher, 16.9 nM
- Cc1cc(C)n(C)c(=O)c1-c1ccc(C[C@H](NC(=O)c2c(F)cc(N3CCOC[C@@H]3C(F)(F)F)cc2F)C(=O)O)c2cccnc12 [Example 95, (S)-2-(2,6-difluoro-4-((R)-3-(trifluoromethyl)morpholino)benzamido)-3-(8-(1,4,6-trimethyl-2-oxo-1,2-dihydropyridin-3-yl)quinolin-5-yl)propanoic acid] — the same, 0.3 nM

Same assay, conditions: Table 2; capture of α4β7 expressing RPM18866 cells on MadCAM-1 extracellular domain-coated plate

Point of comparison: `COc1c(-c2ccc(C[C@H](NC(=O)c3c(F)cc(N[C@H](C)C(F)(F)F)cc3F)C(=O)O)c3cccnc23)c(=O)n(C)c2ccccc12` [Example 156], EC50 0.3 nM. Against it:
- N#Cc1ccc(-c2ccc(C[C@H](NC(=O)c3c(F)cc(NC(c4ccccc4)C(F)F)cc3F)C(=O)O)c3cccnc23)c(Cl)c1 (stereo partly shown) [Example 326] — 64-fold higher, 19.1 nM
- C[C@@H](NC(=O)c1cc(F)c(C(=O)N[C@@H](Cc2ccc(-c3ccc(C#N)cc3Cl)c3ncccc23)C(=O)O)c(F)c1)C(F)(F)F [Example 154] — 150-fold higher, 44.6 nM
- N#Cc1ccc(-c2ccc(C[C@H](NC(=O)c3c(F)cc(C(=O)NC4CC4)cc3F)C(=O)O)c3cccnc23)c(Cl)c1 [Example 197] — 210-fold higher, 63.4 nM
- CC[C@@H](Nc1cc(F)c(C(=O)N[C@@H](Cc2ccc(-c3nc(C)c(C)nc3C)c3ncccc23)C(=O)O)c(F)c1)C(F)(F)F [Example 295] — 25-fold higher, 7.4 nM
- CC[C@@H](Nc1cc(F)c(C(=O)N[C@@H](Cc2ccc(-c3ncc(C)cc3N(C)C)c3ncccc23)C(=O)O)c(F)c1)C(F)(F)F [Example 313] — 44-fold higher, 13.3 nM
- O=C(N[C@@H](Cc1ccc(-c2c(Cl)cc(F)cc2OC(F)F)c2ncccc12)C(=O)O)c1c(F)cccc1F [Example 149] — 170-fold higher, 50.3 nM
- COc1cc(C)n(C)c(=O)c1-c1ccc(C[C@H](NC(=O)c2c(F)cc(N[C@H](C3CC3)C(F)(F)F)cc2F)C(=O)O)c2cccnc12 [Example 166] — within 1.5-fold, 0.4 nM
- Cn1c(=O)c(-c2ccc(C[C@H](NC(=O)c3c(F)cc(NS(=O)(=O)C(F)F)cc3F)C(=O)O)c3cccnc23)cc2ccccc21 [Example 153] — within 1.5-fold, 0.2 nM
- CCOCc1cc(OC)c(-c2ccc(C[C@H](NC(=O)c3c(F)cc(CS(=O)(=O)c4ccccc4)cc3F)C(=O)O)c3cccnc23)c(OC)c1 [Example 224] — 7.3-fold higher, 2.2 nM
- CC[C@@H](Nc1cc(F)c(C(=O)N[C@@H](Cc2ccc(-c3nc(C)nc(C)c3C)c3ncccc23)C(=O)O)c(F)c1)C(F)(F)F [Example 320] — 51-fold higher, 15.3 nM
- CCCN(c1cc(F)c(C(=O)N[C@@H](Cc2ccc(-c3c(C(F)(F)F)cc(C)n(C)c3=O)c3ncccc23)C(=O)O)c(F)c1)[C@H](CC)C(F)(F)F [Example 339] — 2-fold higher, 0.6 nM
- O=C(N[C@@H](Cc1ccc(-c2c(Cl)cc(F)cc2Cl)c2ncccc12)C(=O)O)c1c(F)cc(N[C@H](c2ccccc2)C(F)(F)F)cc1F [Example 282] — 89-fold higher, 26.8 nM
- O=C(N[C@@H](Cc1ccc(-c2cc(F)c(F)cc2OC2CCC2)c2ncccc12)C(=O)O)c1c(F)cccc1F [Example 177] — 93-fold higher, 28 nM
- CC[C@@H](Nc1cc(F)c(C(=O)N[C@@H](Cc2ccc(-c3cn(C)c(=O)cc3C(F)(F)F)c3ncccc23)C(=O)O)c(F)c1)C(F)(F)F [Example 296] — 26-fold higher, 7.7 nM
- CC(C)(O)[C@H](F)CNC(=O)c1cc(F)c(C(=O)N[C@@H](Cc2ccc(-c3ccc(C#N)cc3Cl)c3ncccc23)C(=O)O)c(F)c1 [Example 322] — 54-fold higher, 16.2 nM
- CC[C@@H](Nc1cc(F)c(C(=O)N[C@@H](Cc2ccc(-c3cc4ccccc4n(C)c3=O)c3ncccc23)C(=O)O)c(F)c1)C(F)(F)F [Example 182] — 3-fold higher, 0.9 nM
- Cc1cc(C(F)(F)F)c(-c2ccc(C[C@H](NC(=O)c3c(F)cc(N4CCOC[C@@H]4C(F)(F)F)cc3F)C(=O)O)c3ccc(C(F)(F)F)nc23)c(=O)n1C [Example 231] — 3-fold higher, 0.9 nM
- O=C(N[C@@H](Cc1ccc(-c2nccc(C(F)(F)F)n2)c2ncccc12)C(=O)O)c1c(F)cc(N2CCOC[C@@H]2C(F)(F)F)cc1F [Example 189] — 50-fold higher, 15.1 nM
- Cc1cc(C(F)(F)F)c(-c2ccc(C[C@H](NC(=O)c3c(F)cccc3F)C(=O)O)c3cccnc23)c(=O)n1C [Example 218] — 7-fold higher, 2.1 nM
- O=C(N[C@H](C(=O)O)[C@@H](O)c1ccc(-c2c(Cl)cc(F)cc2Cl)c2ncccc12)c1c(F)cccc1F [Example 279] — 270-fold higher, 82.4 nM
- Cc1cc(C(F)(F)F)c(-c2ccc(C[C@H](NC(=O)c3c(F)cc(N4CCCC[C@@H]4C(F)(F)F)cc3F)C(=O)O)c3cccnc23)c(=O)n1C (atropisomer, axis not shown) [Example 344] — 2.7-fold higher, 0.8 nM
- CC[C@@H](Nc1cc(F)c(C(=O)N[C@@H](Cc2ccc(-c3c(Cl)cc(C)n(C)c3=O)c3ncccc23)C(=O)O)c(F)c1)C(F)(F)F [Example 343] — 2.3-fold higher, 0.7 nM
- Nc1ccc(C(F)(F)F)c(-c2ccc(C[C@H](NC(=O)c3c(F)cc(N4CCOC[C@@H]4C(F)(F)F)cc3F)C(=O)O)c3cccnc23)n1 [Example 194] — 4.7-fold higher, 1.4 nM
- Cc1nc(-c2ccc(C[C@H](NC(=O)c3c(F)cc(N4CCOC[C@@H]4C(F)(F)F)cc3F)C(=O)O)c3cccnc23)c(=O)n(C)c1C [Example 151] — within 1.5-fold, 0.2 nM
